From patent publication US12091399B2, “Phenyltetrazole derivatives as plasma kallikrein inhibitors” (Boehringer Ingelheim International GmbH, priority 2018, dated 2024)
Values belong to the compound of their own block, whether it stands above or below them. Square brackets hold non-standard residues; d marks the D form. Peptide text beside a SMILES is read from it. * marks the point of attachment. pNA = O=[N+]([O-])c1ccc(N*)cc1; AMC = Cc1cc(=O)oc2cc(N*)ccc12; Cha = N[CH](CC1CCCCC1)C(=O)O; Cbz = O=C(OCc1ccccc1)*; Abu = CC[CH](N)C(=O)O; Ms = CS(=O)(=O)*

How the values were obtained:
Format in all cases: biochemical
Human PKK [1] = target: T1, Human PKK (Homo sapiens (Human), UniProt P03952); experiment: Inhibition of PKK using an endpoint assay (human PKK); details: 1 h at rt, 0.10 μM H-Pro-Phe-Arg-AMC
T1 sequence (P03952 391-638): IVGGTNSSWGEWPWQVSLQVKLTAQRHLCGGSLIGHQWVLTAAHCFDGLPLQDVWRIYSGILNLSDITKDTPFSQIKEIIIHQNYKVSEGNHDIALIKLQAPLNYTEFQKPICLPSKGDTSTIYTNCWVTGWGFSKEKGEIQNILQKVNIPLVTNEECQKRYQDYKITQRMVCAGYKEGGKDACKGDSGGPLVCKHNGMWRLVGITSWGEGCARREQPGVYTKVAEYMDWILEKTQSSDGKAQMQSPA
T1 sequence (P03952 20-390 partner): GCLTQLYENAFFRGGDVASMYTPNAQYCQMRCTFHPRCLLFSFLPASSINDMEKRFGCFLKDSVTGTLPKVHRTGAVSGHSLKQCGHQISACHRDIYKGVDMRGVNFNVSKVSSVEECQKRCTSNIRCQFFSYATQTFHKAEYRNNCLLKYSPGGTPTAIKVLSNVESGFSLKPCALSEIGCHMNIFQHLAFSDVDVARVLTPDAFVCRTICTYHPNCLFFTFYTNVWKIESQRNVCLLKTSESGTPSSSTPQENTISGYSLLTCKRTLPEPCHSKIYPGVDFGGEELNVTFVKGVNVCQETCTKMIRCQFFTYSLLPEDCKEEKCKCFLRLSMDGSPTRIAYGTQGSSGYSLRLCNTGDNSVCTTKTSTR
How it was run: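 Run in 100 mM Tris, 150 mM NaCl, pH 7.8, 0.1% BSA, 0.05% Tween20, with 1% (v/v) DMSO. Endpoint read after stopping with PPACK II (1 μM final), fluorescence excitation 355 nm/emission 460 nm.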

[2] = target: PKK in kaolin activated human platelet poor plasma (Homo sapiens (Human), UniProt P03952); experiment: Inhibition of PKK in kaolin activated human PPP; details: global fit over 25, 75, 250, 750 μg/mL kaolin, 37° C.
Sequence of PKK in kaolin activated human platelet poor plasma (P03952 391-638): as the sequence (P03952 391-638) above
Sequence of PKK in kaolin activated human platelet poor plasma (P03952 20-390 partner): as the sequence (P03952 20-390 partner) above
Procedure: Platelet poor plasma (PPP) obtained from human wholeblood, anticoagulated with Na-Citrate, was incubated with various concentrations of the test compound together with either 25, 75, 250, or 750 μg/mL kaolin in assay buffer for 20 min at 37° C. such that for each kaolin dose used a concentration response was obtained for the test compound.
The number of the compound corresponds to the number of the Example in the experimental section.

Human PKK [3] = target: T1, Human PKK; experiment: Inhibition of PKK (Ki), kinetic assay; details: 24° C., 0.25 mM H-Pro-Phe-Arg-AMC, IC50 corrected for KM
Procedure: (§1) The ability of compounds of formula (I) to inhibit plasma kallikrein (PKK), Factor XIIa (FXIIa), Factor XIa (FXIa), Factor Xa (FXa), Factor IIa (alpha-thrombin; FIIa), plasmin, trypsin, tissue kallikrein 1 (TK1), Factor Vila (FVIIa), or FVIIa complexed with Tissue Factor, phospholipids and CaCl2) (FVIIa/TF/PL/CaCl2) was determined using the following biochemical assays in assay buffer (100 mM Tris, 150 mM NaCL, adjusted to a pH of 7.8 with HCl, and containing 0.1% (w/v) BSA and 0.05% (v/v) Tween20) in the presence of 1% (v/v) DMSO:
Human PKK (1.78 nM or 0.025 U/mL; Enzyme Research Laboratories) was incubated at 24° C. with 0.25 mM fluorogenic substrate H-Pro-Phe-Arg-AMC (11295 from Bachem) and various concentrations of the test compound in assay buffer. Measurements were performed in a kinetic interval every 2nd minute for 16 min using a Spectramax M5 (Molecular Devices) with the following settings of the wavelength excitation of 350 nm and wavelength emission of 450 nm. The number of the compound corresponds to the number of the Example in the experimental section.
(§2) The pIC50 values were then fitted using a four-parametric fitting procedure using GraphPad Prism (version 6; GraphPad Software, Inc.). Respective Ki values were obtained by correction of the IC50 values for the respective KM value of the used substrate (see Table A for the obtained KM values of the used substrates) using the following formula: […]
Where the IC50 is in mol/L and the KM value in mmol/L.

human TK1 = human TK1 (Homo sapiens (Human), UniProt P06870); experiment: Inhibition of TK1 (Ki); details: substrate KM, enzyme TK1
Sequence of human TK1 (P06870 25-262): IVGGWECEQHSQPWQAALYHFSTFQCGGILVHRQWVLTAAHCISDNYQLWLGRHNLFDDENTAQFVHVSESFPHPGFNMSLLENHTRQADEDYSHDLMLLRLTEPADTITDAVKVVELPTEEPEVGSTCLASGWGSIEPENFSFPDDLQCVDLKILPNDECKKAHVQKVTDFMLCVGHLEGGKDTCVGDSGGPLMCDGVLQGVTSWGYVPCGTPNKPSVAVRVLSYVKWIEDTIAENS
Procedure: as §1
Prior to the assay, human TK1 (R&D Systems) was activated by incubation with human trypsin (Calbiochem) in a 1:10,000 ratio for 15 min at 37° C. For assaying TK1 inhibitory activity, activated TK1 (31.25 nM or 1 U/mL) was incubated at 24° C. with 0.1 mM fluorogenic substrate H-Pro-Phe-Arg-AMC (11295 from Bachem) and various concentrations of the test compound in assay buffer. Measurements were performed in a kinetic interval every 2nd minute for 16 min using a Spectramax M5 (Molecular Devices) with the following settings of the wavelength excitation of 350 nm and wavelength emission of 450 nm.
(§3) The pIC50 values were then fitted using a four-parametric fitting procedure using GraphPad Prism (version 6; GraphPad Software, Inc.). […]

Human FIIa = Human FIIa (Homo sapiens (Human), UniProt P00734); experiment: Inhibition of FIIa (Ki); details: substrate KM, enzyme FIIa
Procedure: as §1
(§4) Human FIIa (44.6 nM or 5 U/mL; Enzyme Research Laboratories) was incubated at 24° C. with 0.5 mM chromogenic Substrate S2238 (Chromogenix) and various concentrations of the test compound in assay buffer. Measurements were performed in a kinetic interval every 2nd minute for 16 min using a Spectramax M5 (Molecular Devices) measuring the optical absorbance at 405 nm.
as §2

Human plasmin = Human plasmin (Homo sapiens (Human), UniProt P00747); experiment: Inhibition of plasmin (Ki); details: substrate KM, enzyme Plasmin
Sequence of Human plasmin (P00747 581-810): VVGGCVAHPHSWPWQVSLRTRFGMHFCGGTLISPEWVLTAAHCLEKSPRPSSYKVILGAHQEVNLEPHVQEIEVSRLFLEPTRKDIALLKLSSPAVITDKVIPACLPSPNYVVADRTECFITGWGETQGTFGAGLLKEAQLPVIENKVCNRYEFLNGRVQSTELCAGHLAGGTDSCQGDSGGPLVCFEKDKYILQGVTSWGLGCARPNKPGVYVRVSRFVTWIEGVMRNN
Sequence of Human plasmin (P00747 97-580 partner): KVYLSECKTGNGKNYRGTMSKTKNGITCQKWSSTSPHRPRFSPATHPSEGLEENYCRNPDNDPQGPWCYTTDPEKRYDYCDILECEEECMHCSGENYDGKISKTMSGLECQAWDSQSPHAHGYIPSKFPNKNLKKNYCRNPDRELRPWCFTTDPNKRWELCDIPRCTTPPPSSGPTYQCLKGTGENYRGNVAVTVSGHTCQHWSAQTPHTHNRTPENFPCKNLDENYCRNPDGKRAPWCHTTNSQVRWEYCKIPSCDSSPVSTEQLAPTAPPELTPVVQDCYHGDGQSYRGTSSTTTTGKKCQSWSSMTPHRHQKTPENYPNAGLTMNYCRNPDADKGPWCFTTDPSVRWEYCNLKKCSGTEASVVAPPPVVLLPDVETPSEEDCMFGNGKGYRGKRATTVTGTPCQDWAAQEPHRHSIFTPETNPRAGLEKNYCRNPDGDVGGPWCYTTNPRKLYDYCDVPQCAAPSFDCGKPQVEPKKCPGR
Procedure: as §1
Measurements were performed in a kinetic interval every 2nd minute for 16 min using a Spectramax M5 (Molecular Devices) measuring the optical absorbance at 405 nm.
as §2

Human FXIIa = Human FXIIa (Homo sapiens (Human), UniProt P00748); experiment: Inhibition of FXIIa (Ki); details: substrate KM, enzyme FXIIa
Sequence of Human FXIIa (P00748 373-615): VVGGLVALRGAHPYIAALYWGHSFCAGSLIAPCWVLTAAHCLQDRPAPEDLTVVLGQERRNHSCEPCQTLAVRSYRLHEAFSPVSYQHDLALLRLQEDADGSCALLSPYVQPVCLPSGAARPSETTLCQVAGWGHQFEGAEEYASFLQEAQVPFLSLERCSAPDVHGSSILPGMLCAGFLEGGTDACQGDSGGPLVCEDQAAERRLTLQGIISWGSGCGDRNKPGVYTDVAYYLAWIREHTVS
Sequence of Human FXIIa (P00748 20-372 partner): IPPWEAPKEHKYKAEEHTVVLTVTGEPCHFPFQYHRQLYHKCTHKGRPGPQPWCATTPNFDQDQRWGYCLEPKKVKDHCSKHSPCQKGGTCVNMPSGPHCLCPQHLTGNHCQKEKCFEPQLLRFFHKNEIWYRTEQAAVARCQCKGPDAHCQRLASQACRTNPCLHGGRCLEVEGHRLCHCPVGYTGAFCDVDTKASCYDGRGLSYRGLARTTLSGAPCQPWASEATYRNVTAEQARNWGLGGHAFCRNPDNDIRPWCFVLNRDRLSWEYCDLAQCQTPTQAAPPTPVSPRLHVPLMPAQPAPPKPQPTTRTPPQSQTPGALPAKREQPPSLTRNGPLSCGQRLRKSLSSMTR
Procedure: as §1
as §4, with “Human FXIIa (47.5” for “Human FIIa (44.6”, “or 1.1” for “or 5”, “Substrate S2302” for “Substrate S2238”
as §2

Human FXa = Human FXa (Homo sapiens (Human), UniProt P00742); experiment: Inhibition of FXa (Ki); details: substrate KM, enzyme FXa
Sequence of Human FXa (P00742 235-488): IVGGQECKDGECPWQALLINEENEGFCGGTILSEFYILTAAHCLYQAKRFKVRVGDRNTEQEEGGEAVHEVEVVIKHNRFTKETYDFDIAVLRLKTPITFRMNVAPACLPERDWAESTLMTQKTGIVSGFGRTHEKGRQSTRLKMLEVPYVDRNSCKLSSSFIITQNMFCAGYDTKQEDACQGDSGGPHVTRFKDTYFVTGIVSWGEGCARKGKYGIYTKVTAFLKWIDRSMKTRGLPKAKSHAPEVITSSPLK
Sequence of Human FXa (P00742 41-179 partner): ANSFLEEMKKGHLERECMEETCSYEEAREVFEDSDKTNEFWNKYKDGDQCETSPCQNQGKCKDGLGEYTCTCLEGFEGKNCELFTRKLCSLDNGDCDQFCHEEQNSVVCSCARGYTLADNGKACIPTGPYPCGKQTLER
Procedure: as §1
as §4, with “Human FXa (0.86” for “Human FIIa (44.6”, “or 0.01” for “or 5”, “Substrate S2765” for “Substrate S2238”
as §2

FVIIa/TF/PL/CaCl2 = FVIIa/TF/PL/CaCl2 (Homo sapiens (Human), UniProt P08709); experiment: Inhibition of FVIIa/TF/PL/CaCl2 (Ki); details: substrate KM, enzyme FVIIa/TF/PL/CaCl2
Sequence of FVIIa/TF/PL/CaCl2 (P08709 213-466): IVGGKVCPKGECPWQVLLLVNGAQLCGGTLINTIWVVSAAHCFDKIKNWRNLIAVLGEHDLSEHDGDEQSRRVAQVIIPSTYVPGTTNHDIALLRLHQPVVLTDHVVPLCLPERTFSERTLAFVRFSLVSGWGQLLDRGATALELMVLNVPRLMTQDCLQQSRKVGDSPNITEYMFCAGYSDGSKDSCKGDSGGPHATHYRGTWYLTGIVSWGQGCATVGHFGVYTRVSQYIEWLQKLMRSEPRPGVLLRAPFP
Sequence of FVIIa/TF/PL/CaCl2 (P08709 61-212 partner): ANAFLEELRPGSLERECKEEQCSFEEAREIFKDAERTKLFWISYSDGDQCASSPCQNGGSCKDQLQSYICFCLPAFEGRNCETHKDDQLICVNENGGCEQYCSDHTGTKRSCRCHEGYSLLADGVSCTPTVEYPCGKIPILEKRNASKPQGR
Sequence of FVIIa/TF/PL/CaCl2 (P13726 33-295 partner): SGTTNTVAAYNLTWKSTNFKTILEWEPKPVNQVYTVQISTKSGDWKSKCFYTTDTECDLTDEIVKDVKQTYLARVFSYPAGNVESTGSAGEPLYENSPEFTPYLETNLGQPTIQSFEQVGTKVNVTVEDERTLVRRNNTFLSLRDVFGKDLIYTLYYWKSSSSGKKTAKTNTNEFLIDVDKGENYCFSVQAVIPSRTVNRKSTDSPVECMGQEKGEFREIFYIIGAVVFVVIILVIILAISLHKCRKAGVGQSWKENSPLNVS
Procedure: as §1
Human FVIIa (300 nM or 585 U/mL; Enzyme Research Laboratories) together with 10 mM CaCl2)*2H2O and 13.3% (v/v) Dade®Innovin® (Siemens; OQUMI94E0002(5534), which contains recombinant human tissue factor synthetic phospholipids (thromboplastin), was incubated at 24° C. with 1.5 mM chromogenic Pefachrome® FVIIa (Loxo) and various concentrations of the test compound in assay buffer. Measurements were performed in a kinetic interval every 2nd minute for 16 min using a Spectramax M5 (Molecular Devices) measuring the optical absorbance at 405 nm.
as §3

Human FVIIa = Human FVIIa (Homo sapiens (Human), UniProt P08709); experiment: Inhibition of FVIIa (Ki); details: substrate KM, enzyme FVIIa
Sequence of Human FVIIa (P08709 213-466): as the sequence (P08709 213-466) above
Sequence of Human FVIIa (P08709 61-212 partner): as the sequence (P08709 61-212 partner) above
Procedure: as §1
as §4, with “Human FVIIa (0.86” for “Human FIIa (44.6”, “or 0.01” for “or 5”, “with 1.5” for “with 0.5”, “chromogenic Pefachrome® FVIIa (Loxo)” for “chromogenic Substrate S2238 (Chromogenix)”
as §2

Compound: Cc1nc(N2CC3(CC3)C2)ccc1Cn1cc(C(=O)NCc2cc(Cl)ccc2-n2cnnn2)cn1 [Example 63, 1-[(6-{5-azaspiro[2.3]hexan-5-yl}-2-methylpyridin-3-yl)methyl]-N-{[5-chloro-2-(1H-1,2,3,4-tetrazol-1-yl)phenyl]methyl}-1H-pyrazole-4-carboxamide]
IC50 (Human PKK [1]): 0.5 nM
IC90 [2]: 209 nM
Ki (Human PKK [3]): 0.3 nM

Compound: Cc1nc(N2C[C@@H]3[C@H](C)[C@@H]3C2)ccc1Cn1cc(C(=O)NCc2cc(Cl)ccc2-n2cnnn2)cn1 [Example 87]
IC50 (Human PKK [1]): 0.9 nM
IC90 [2]: 252 nM
Ki (Human PKK [3]): 0.8 nM

Compound: CC(C)C[C@H](NC(=O)[C@H](N)C(C)C)C(=O)N[C@@H](CCCCN)C(=O)Nc1ccc([N+](=O)[O-])cc1 [Example S2251] (H-[dV]-Leu-Lys-pNA)
Km (Human plasmin): 1450 µM

Compound: NC(N)=NCCC[C@H](NC(=O)CNC(=O)[C@@H](CCCN=C(N)N)NC(=O)OCc1ccccc1)C(=O)Nc1ccc([N+](=O)[O-])cc1 [Example S2765] (Cbz-[dR]-Gly-Arg-pNA)
Km (Human FXa): 1310 µM

Compound: CCC(NC(=O)C(CC1CCCCC1)NS(C)(=O)=O)C(=O)NC(CCCN=C(N)N)C(=O)Nc1ccc([N+](=O)[O-])cc1 (stereo not shown) [Pefachrome ® FVIIa] (Ms-[Cha]-[Abu]-Arg-pNA; configuration not given here)
Km (FVIIa/TF/PL/CaCl2): 3920 µM
Km (Human FVIIa): 420 µM

Next, values leading:

Km (human TK1): 70 µM
Compound: Cc1cc(=O)oc2cc(NC(=O)[C@H](CCCNC(=N)N)NC(=O)[C@H](Cc3ccccc3)NC(=O)[C@@H]3CCCN3)ccc12 [Example I1295, H-Pro-Phe-Arg-AMC] (H-Pro-Phe-Arg-{AMC})

Km (Human FIIa): 1250 µM
Compound: NC(N)=NCCC[C@H](NC(=O)[C@@H]1CCCCN1C(=O)[C@H](N)Cc1ccccc1)C(=O)Nc1ccc([N+](=O)[O-])cc1 [Example S2238]

Km (Human FXIIa): 200 µM
Compound: N=C(N)NCCC[C@H](NC(=O)[C@H](Cc1ccccc1)NC(=O)[C@H]1CCCN1)C(=O)Nc1ccc([N+](=O)[O-])cc1 [Example S2302] (H-[dP]-Phe-Arg-pNA)
